Laboratory results published in PMC7822816, “Halo-fluorescein for photodynamic bacteria inactivation in extremely acidic conditions” (Nature Communications, 2021).
Values joined by “and” are separate entries in the source; they are usually repeats but may differ in a detail not shown here. Identical values can stand only once.

Assays:
C. albicans [1] = experiment: IC50 of photodynamic inactivation, C. albicans; details: Candida albicans, 10 min, pH 3, read-out: IC50 (C. albicans)
Protocol: (§1) For quantitative comparison, the half-maximal inhibitory concentrations (IC50) of TIF for these bacterial were measured (Supplementary Table 6, and Supplementary Figs. 51–58).
Bacterial strains are listed in Supplementary Table 6. S. aureus and MRSA, and C. albicans were provided by West China Hospital of Stomatology, Sichuan University. A. acidoterrestris, S. enterica, H. pylori, L. plantarum, and E. coli were provided by College of Life Science, Sichuan University. The bacteria were cultured overnight in a constant temperature oscillator (37 °C, 170 r/min, the specific culture conditions were listed in Supplementary Table 6). Suspensions of bacteria (100 μL, diluted 1000-folds, PBS) were added with different concentration PSs (final volume of 1 mL), and irradiated with LED (λ = 520 nm, 35 mW/cm^2) for 10 min. Then, the treated bacteria liquid (100 μL) were added into the culture medium and cultured in a 24-well plate. The OD600 of bacteria was measured to obtain the bacteria CFUs, and the survival rate were calculated as C/C0 × 100%, where C is the CFU of sample which treated with PSs and light, and C0 is the blank without any treatment. All photodynamic sterilizations were carried out in at least three replicates.
Irradiation: 520 nm green LED (6 mW/cm2), 10 min. Error bars = Standard Deviation (n=3).
Irradiation: 520 nm green LED (6 mW/cm2), 10 min.

C. albicans [2] = experiment: Fresh food preservation (infected tomato model); parameters: species or system Candida albicans
Excerpt: Besides fruit juices, the potential of TIF for photo-assisted fresh food preservation was also investigated with tomato as the model (pH 3.0). […] Therefore, the food additive TIF is also promising for fresh food preservation.
Tomatoes were selected as the model for photo-assisted fresh food preservation. All the tomatoes were divided into six groups, and made a wound of ~7 cm^2 by hot water. […] Afterward, the tomatoes were stored at room temperature and then subjected to repeated irradiation at day 2. The total viable counts of bacteria on the infected tomatoes were measured in day 3.

[3] = Relative singlet oxygen quantum yield (1O2 phosphorescence, Rose Bengal standard); assay type: physicochemical; parameters: key: relative to Rose Bengal standard (ΦΔ = 0.75); details: pH = 10 media; relative, RB as the standard
Protocol: To permit the open-form structure of all fluorescein derivatives, all the measurements were carried out in pH = 10 media.
The singlet oxygen quantum yields (ΦΔ) of all fluorescein-based PSs were evaluated with Rose Bengal as the standard (ΦΔ = 0.75):1 ΦΔ=AsAbsorption/As(Emission)×ARB(Emission)/ARB(Absorption)×0.75 Here, the area of absorption (RB and PSs) was collected with an integrating sphere (λex = 510 nm), while the area of emission was obtained from the characterized 1270 nm ^1O2 phosphorescence emission. For collection of such emission, CH3CN and D2O mixed solvent (v (D2O): v (CH3CN) = 1:15, pH = 9.0, adjusted with 0.001 M NaOH) was used, since H2O can severely quench the singlet oxygen luminescence. For all the measurements, the concentrations of the PSs were set at 10 μM.
S6.3 Relative singlet oxygen quantum yield
The singlet O2 quantum yield of photosensitizers were measured by Fluolog-3 spectrofluorometer with an integration sphere (IS80, Labsphere) and NIR detector (Hamamatsu H-10330) in this work.
For better collection of the characterized singlet oxygen phosphorescence emission (1275 nm), CH3CN and D2O mixed solvent was used (H2O can severely quench the singlet oxygen luminescence). The 10 mM stock solutions in CH3CN and D2O mixed solvent (VCH3CN:VD2O = 15:1) were first prepared. The stock solutions were diluted to 10 μM, and the final volume was 2 mL. In addition, the CH3CN and D2O mixed solvent as blank was also prepared.
1. Turn on the instrument and the start software, the light source is xenon lamp.
2. From the experiment menu, selected spectra, emission. The 1O2 emission phosphorescence spectra are first measured.
3. The parameters setting are listed: a. Excitation wavelength: 510 nm

MRSA = experiment: IC50 / growth inhibition of photodynamic inactivation, MRSA; assay type: cell-based, methicillin-resistant S. aureus
S. aureus = experiment: IC50 of photodynamic inactivation, S. aureus; details: Staphylococcus aureus, 10 min, pH 2.5, read-out: IC50 (S. aureus)
Protocol: as §1
S. aureus and MRSA, and C. albicans were provided by West China Hospital of Stomatology, Sichuan University. A. acidoterrestris, S. enterica, H. pylori, L. plantarum, and E. coli were provided by College of Life Science, Sichuan University. The bacteria were cultured overnight in a constant temperature oscillator (37 °C, 170 r/min, the specific culture conditions were listed in Supplementary Table 6). Suspensions of bacteria (100 μL, diluted 1000-folds, PBS) were added with different concentration PSs (final volume of 1 mL), and irradiated with LED (λ = 520 nm, 35 mW/cm^2) for 10 min. Then, the treated bacteria liquid (100 μL) were added into the culture medium and cultured in a 24-well plate. The OD600 of bacteria was measured to obtain the bacteria CFUs, and the survival rate were calculated as C/C0 × 100%, where C is the CFU of sample which treated with PSs and light, and C0 is the blank without any treatment. All photodynamic sterilizations were carried out in at least three replicates.

[4] = 1O2 phosphorescence emission under different pH and irradiance; assay type: physicochemical; details: pH 2.2 (the gastric acidity), 10 μM
Excerpt: To evaluate the pH-dependent ^1O2 generation, TIF, PB, and RB were chosen here because of their high ^1O2 generation efficiency and low pH0.5. […] Similar results from PB and RB were also observed (Supplementary Figs. 17 and 18). When pH was lowered down to 2.2 (the gastric acidity), appreciable ^1O2 phosphorescence emission was still collected from TIF, indicating the good performance of TIF in photosensitized generation of ^1O2 in extremely acidic condition. Besides, the pH-induced decrease of ^1O2 generation could be compensated through enlarging the light irradiance. […] Therefore, TIF featured good performance for potential photodynamic bacteria inactivation at extremely acidic conditions.
A total of 10 μM TIF solutions were first prepared with citric acid–Na2HPO4 buffer (100 mM, diluted by D2O) to yield different pH (2.2–6.0). Then, a laser of 532 nm was selected as the lighting source, and the ^1O2 phosphorescence emission were collected.
S5.3 1O2 phosphorescence emission of TIF under different pH and irradiance 10 μM TIF solutions were first prepared with citric acid-Na2HPO4 buffer (100 mM, diluted by D2O) to yield different pH (2.2-6.0). The pH value of solution were adjust by HCl (c, diluted by D2O). Then, laser of 532 nm was selected as the light source, and the 1O2 phosphorescence emission were collected by near infrared detector (H-10330)
Supplementary Figure 19. […]

[5] = test system: bacteria in passionfruit lemon juice; experiment: Photodynamic sterilization of acidic juices
Protocol: The prepared juice samples were divided into two groups: one for light treatment of 10–20 min (xenon lamp with 420 nm long-pass filter, 100 mW/cm^2), and another without (stored at 4 °C). […] For other juices (pH 3.6–4.6), similar bacteria inhibition results were obtained (Supplementary Figs. 63–66). Besides, the greatly extended shelf life was also applicable to strawberry juice (Supplementary Fig. 67) and tomato juice (Supplementary Fig. 68). […] It should be noted that the TIF-based method was efficient in treatment of acid- and heat-resistant A. acidoterrestris (Fig. 6), the main cause of fruit juice spoilage and deterioration (even after pasteurization[41]).
Fresh juices were prepared and divided into two groups (each to a culture dish of 60 mm id), and then TIF was added with final concentration of 10 μM. One group was subjected to light processing (xenon lamp, 300 W, 420 nm optical filter, beam spot size 60 mm) for 10–20 min, and another without. All samples were sub-packed into the headspace bottle and stored in 4 °C for different time. To determine the bacteria colonies, 1 mL juice samples were mixed with plate count agar and culture at 37 °C for 48 h (GB 4789.2-2016). Afterward, the total number of bacteria colonies were counted.

Salmonella = experiment: IC50 of photodynamic inactivation, Salmonella; details: 10 min, pH 2.5, read-out: IC50 (Salmonella)
Protocol: The bacteria were cultured overnight in a constant temperature oscillator (37 °C, 170 r/min, the specific culture conditions were listed in Supplementary Table 6). Suspensions of bacteria (100 μL, diluted 1000-folds, PBS) were added with different concentration PSs (final volume of 1 mL), and irradiated with LED (λ = 520 nm, 35 mW/cm^2) for 10 min. Then, the treated bacteria liquid (100 μL) were added into the culture medium and cultured in a 24-well plate. The OD600 of bacteria was measured to obtain the bacteria CFUs, and the survival rate were calculated as C/C0 × 100%, where C is the CFU of sample which treated with PSs and light, and C0 is the blank without any treatment. All photodynamic sterilizations were carried out in at least three replicates.
Growth inhibition of E. coli by different concentrations of TIF.
Irradiation: 520 nm green LED (6 mW/cm2), 10 min. Error bars = Standard Deviation (n=6).
Growth inhibition of Salmonella by different concentrations of
TIF. Irradiation: 520 nm green LED (6 mW/cm2), 10 min.

O=C(O)c1ccccc1-c1c2cc(I)c(=O)c(I)c-2oc2c(I)c(O)c(I)cc12 [TIF, 2′,4′,5′,7′-tetraiodofluorescein]
IC50 (C. albicans [1]): 1040 nM | wound infection of tomatoes, without light (C. albicans [2]; 10 μM in pH 3.0 PBS, TIF only): different magnitudes of wound infection | colony counting of infected tomatoes (C. albicans [2]; day 3, 10 μM, pH 3.0, 520 nm LED): excellent antimicrobial ability | singlet oxygen quantum yield (ΦΔ) [3]: 0.64 | IC50 (MRSA; Staphylococcus aureus, 10 min, pH 2.5, LED 520 nm, 35 mW/cm^2, 10 min): 340 nM | Inhibition ratio (MRSA; dose 2.0 μM, 3 V/3 W, 6 mW/cm2, 10 min): > 97.1% | IC50 (S. aureus): 370 nM | 1O2 phosphorescence emission (1270 nm) [4]: appreciable | shelf life of juice after photo-treatment ([5]; passionfruit lemon juice pH 2.8, 10 μM, xenon lamp 420 nm long-pass 100 mW/cm^2, 10 min, stored at 4 °C): ~ 15 days and 15 days | sterilization performance compared with standard methods ([5]; passionfruit lemon juice, versus pasteurization and O3 treatment): comparable sterilization performance as pasteurization | IC50 (Salmonella): 630 nM
